Tested on: NCI-H196 complex spheroid viability
Assay: Anticancer human tumor NCI-H196 cell line growth inhibition [LSD1];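 also: spheroids exposed to agents for 7 days before readout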;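 as to viability, T/C: 100% = DMSO vehicle control viability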
Details: for IC50: curve of first compound; for viability, T/C: stronger effect = lower value; active = viability on the fitted dose curve at most 10% of control; inactive = the rest
Procedure, shortened: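 Drug combinations with the LSD1 inhibitor iadademstat tested on tumor cells co-cultured as spheroids with endothelial cells and mesenchymal stem cells. Concentrations descended in half-log increments from clinical Cmax or 10 microM.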

CC(C)CC(NC(=O)CNC(=O)c1cc(Cl)ccc1Cl)B1OC(=O)CC(CC(=O)O)(C(=O)O)O1 (stereo not given) + NC1CCC(NC2CC2c2ccccc2)CC1
active: viability, T/C (second compound 0.1 µM, first compound 0.1 µM) 8.24% | viability, T/C (second compound 0.316 µM, first compound 0.1 µM) 8.69% | viability, T/C (second compound 3.16 µM, first compound 0.1 µM) 9.23% | viability, T/C (second compound 10 µM, first compound 0.1 µM) 6.12%
18.7 nM: IC50 (second compound 1 µM)
19.5 nM: IC50 (second compound 0.316 µM)
inactive: viability, T/C (second compound 0.1 µM, first compound 0.000316 µM) 107% | viability, T/C (second compound 0.1 µM, first compound 0.001 µM) 109% | viability, T/C (second compound 0.1 µM, first compound 0.00316 µM) 102% | viability, T/C (second compound 0.1 µM, first compound 0.01 µM) 78% | viability, T/C (second compound 0.1 µM, first compound 0.0316 µM) 26.1% | viability, T/C (second compound 0.316 µM, first compound 0.000316 µM) 106% | viability, T/C (second compound 0.316 µM, first compound 0.001 µM) 106% | viability, T/C (second compound 0.316 µM, first compound 0.00316 µM) 101% | viability, T/C (second compound 0.316 µM, first compound 0.01 µM) 78.5% | viability, T/C (second compound 0.316 µM, first compound 0.0316 µM) 29.5% | viability, T/C (second compound 1 µM, first compound 0.000316 µM) 103% | viability, T/C (second compound 1 µM, first compound 0.001 µM) 105% | viability, T/C (second compound 1 µM, first compound 0.00316 µM) 120% | viability, T/C (second compound 1 µM, first compound 0.01 µM) 71.9% | viability, T/C (second compound 1 µM, first compound 0.0316 µM) 31.4% | viability, T/C (second compound 1 µM, first compound 0.1 µM) 7.57% | viability, T/C (second compound 3.16 µM, first compound 0.000316 µM) 99.5% | viability, T/C (second compound 3.16 µM, first compound 0.001 µM) 107% | viability, T/C (second compound 3.16 µM, first compound 0.00316 µM) 102% | viability, T/C (second compound 3.16 µM, first compound 0.01 µM) 85.8% | viability, T/C (second compound 3.16 µM, first compound 0.0316 µM) 31.9% | viability, T/C (second compound 10 µM, first compound 0.000316 µM) 102% | viability, T/C (second compound 10 µM, first compound 0.001 µM) 104% | viability, T/C (second compound 10 µM, first compound 0.00316 µM) 105% | viability, T/C (second compound 10 µM, first compound 0.01 µM) 75.7% | viability, T/C (second compound 10 µM, first compound 0.0316 µM) 33%
20.1 nM: IC50 (second compound 10 µM)
18.6 nM: IC50 (second compound 0.1 µM)
21.5 nM: IC50 (second compound 3.16 µM)

From PubChem BioAssay AID1918958 (Molecular Pharmacology Branch, DTP, NCI, 2023)
